In brackets after ≈: the same amount, converted by molar mass. Like-named read-outs stand apart in the source and are kept apart here.
Key:
[1] = Solubilization test of compound 1 with surfactants in FaSSIF; assay type: physicochemical; conditions: for solubility at 0.5 h / solubility at 1 h / solubility at 2 h / solubility at 4 h: 37° C., read-out: Concentration of API in vehicle
Method: 50 mg of compound 1 was weighed into 5 mL of FaSSIF medium containing 5 mg of different surfactants (target concentration of API (compound 1):10 mg/mL). The mixture was shaken at 500 rpm and 37° C. 0.5 mL each of the suspension samples was taken at 0.5 hours, 1 hour, 2 hours, and 4 hours, respectively, centrifuged at 14,000 rpm for 5 minutes, and the supernatant was diluted and analyzed by HPLC.

[2] = Dynamic solubility test (two-step dissolution, SGF then FaSSIF) of solid dispersions; assay type: physicochemical; conditions: 37° C.
Method: 20 mg each of the solid dispersion products from formulations 1 to 9 in Example 4 was taken and added with 3 mL of SGF (target concentration of API: […]). The mixture was stirred at 37° C. and 500 rpm for 0.25 hours and 0.5 hours, respectively, followed by sampling. 3 mL of 2× FaSSIF was then added to adjust the solution pH to approximately 6.5. The mixture was stirred for another 0.25 hours, 0.5 hours, 1 hour, and 1.5 hours, respectively, followed by sampling. The collected samples were analyzed by UPLC, and the final solution pH was measured.

[3] = FaSSIF (pH 6.5) with 5 mg Cremophor EL, 50 mg API in 5 mL
[4] = FaSSIF (pH 6.5) with 5 mg Cremophor RH40, 50 mg API in 5 mL
[5] = FaSSIF (pH 6.5) with 5 mg SLS, 50 mg API in 5 mL
[6] = FaSSIF (pH 6.5) with 5 mg Solutol HS15, 50 mg API in 5 mL
[7] = FaSSIF (pH 6.5) with 5 mg VE-TPGS, 50 mg API in 5 mL
[8] = FaSSIF (pH 6.5), no surfactant, 50 mg API in 5 mL
[9] = fassif with poloxamer 188, FaSSIF (pH 6.5) with 5 mg Poloxamer 188, 50 mg API in 5 mL
[10] = fassif with poloxamer 407, FaSSIF (pH 6.5) with 5 mg Poloxamer 407, 50 mg API in 5 mL
[11] = fassif with tween 80, FaSSIF (pH 6.5) with 5 mg Tween 80, 50 mg API in 5 mL

## NS(=O)(=O)c1cc(NC(=O)Cc2ccccc2Cl)cc2nn(C(F)F)cc12 [compound 1]
[1]; [3]
  solubility at 0.5 h: 1570 µg/mL (≈ 3800 µM)
  solubility at 1 h: 1600 µg/mL (≈ 3870 µM)
  solubility at 2 h: 1540 µg/mL (≈ 3710 µM)
  solubility at 4 h: 1510 µg/mL (≈ 3640 µM)
[1]; [4]
  solubility at 0.5 h: 1580 µg/mL (≈ 3820 µM)
  solubility at 1 h: 1600 µg/mL (≈ 3870 µM)
  solubility at 2 h: 1570 µg/mL (≈ 3780 µM)
  solubility at 4 h: 1540 µg/mL (≈ 3710 µM)
[1]; [5]
  solubility at 0.5 h: 614 µg/mL (≈ 1480 µM)
  solubility at 1 h: 622 µg/mL (≈ 1500 µM)
  solubility at 2 h: 639 µg/mL (≈ 1540 µM)
  solubility at 4 h: 652 µg/mL (≈ 1570 µM)
[1]; [6]
  solubility at 0.5 h: 1470 µg/mL (≈ 3530 µM)
  solubility at 1 h: 1500 µg/mL (≈ 3620 µM)
  solubility at 2 h: 1480 µg/mL (≈ 3570 µM)
  solubility at 4 h: 1460 µg/mL (≈ 3510 µM)
[1]; [7]
  solubility at 0.5 h: 2110 µg/mL (≈ 5100 µM)
  solubility at 1 h: 2120 µg/mL (≈ 5120 µM)
  solubility at 2 h: 2090 µg/mL (≈ 5040 µM)
  solubility at 4 h: 2080 µg/mL (≈ 5010 µM)
[1]; [8]
  solubility at 0.5 h: 33.9 µg/mL (≈ 81.7 µM)
  solubility at 1 h: 22.9 µg/mL (≈ 55.2 µM)
  solubility at 2 h: 15.2 µg/mL (≈ 36.6 µM)
  solubility at 4 h: 14.9 µg/mL (≈ 35.9 µM)
[1]; FaSSIF with SLS, Cremophor EL, Cremophor RH40, VE-TPGS, Tween 80, Poloxamer 407, or Solutol HS15, in words
  Solubility of compound 1 with surfactants: significantly improved
[1]; [9]
  solubility at 0.5 h: 116 µg/mL (≈ 279 µM)
  solubility at 1 h: 123 µg/mL (≈ 297 µM)
  solubility at 2 h: 104 µg/mL (≈ 251 µM)
  solubility at 4 h: 93.9 µg/mL (≈ 226 µM)
[1]; [10]
  solubility at 0.5 h: 838 µg/mL (≈ 2020 µM)
  solubility at 1 h: 861 µg/mL (≈ 2070 µM)
  solubility at 2 h: 842 µg/mL (≈ 2030 µM)
  solubility at 4 h: 797 µg/mL (≈ 1920 µM)
[1]; [11]
  solubility at 0.5 h: 899 µg/mL (≈ 2170 µM)
  solubility at 1 h: 893 µg/mL (≈ 2150 µM)
  solubility at 2 h: 888 µg/mL (≈ 2140 µM)
  solubility at 4 h: 887 µg/mL (≈ 2140 µM)
[2]; Step 1 (SGF, pH 1.6), 0.25 h, target API 2 mg/mL
  Solubility of API in vehicle: 33.7 µg/mL
[2]; Step 1 (SGF, pH 1.6), 0.5 h, target API 2 mg/mL
  Solubility of API in vehicle: 65.1 µg/mL
[2]; Step 2 (FaSSIF, pH 6.5), 0.75 h
  Solubility of API in vehicle: 13.7 µg/mL
[2]; Step 2 (FaSSIF, pH 6.5), 1.0 h
  Solubility of API in vehicle: 33.5 µg/mL
[2]; Step 2 (FaSSIF, pH 6.5), 2.0 h
  Solubility of API in vehicle: 18.0 µg/mL
[2]; Step 2 (FaSSIF, pH 6.5), […]
  Solubility of API in vehicle: 15.0 µg/mL

Reference: patent publication US20260284010A1, “SOLID DISPERSION OF P2X4 INHIBITOR, AND PREPARATION METHOD THEREFOR AND USE THEREOF” (priority 2023, published 2026)
